Results published in patent publication US9833497B2, “Human originated EGF domain proteins and use of the same” (CHENGDU SOURCEBIO LIMITED-LIABILITY COMPANY, priority 2013, dated 2017).

test system: Proteus vulgaris; test: MIC against Gram-negative bacteria: Proteus vulgaris; format: cell-based; details: P. vulgaris; 10 h cultivation at 37° C.
How it was run: (§1)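 Broth microdilution, LB medium, final inoculum 5×10^5 CFU/mL from McFarland 0.5 cultures. Recombinant human EGF domain proteins tested in two-fold steps, n=3. MIC: lowest concentration, no growth.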

| Substance | MIC [µg/mL] |
| --- | --- |
| PRT988 (DVDECQLQPNACHNGGTCFNTLGGHSCVCVNGWTGESCS; listed as Homo sapiens) | 50 |
| PRT991 (RGLLCGSFPEPCANGGTCLSLSLGQGTCQCAPGFLGETCQ; listed as Homo sapiens) | 12.5 |

same assay, conditions: P. vulgaris; 10 h cultivation at 37° C.; 5×10^5 CFU/mL

| Substance | MIC (μg/mL) P. vulgaris [µg/mL] |
| --- | --- |
| PRT807 (YGDGCQLPCTCQNGADCHSITGGCTCAPGFMGEVCA; listed as Homo sapiens) | 50 |
| PRT768 (AIDYCSFGNHSCQHECVSTPGGPRCHCREGHDLQPDGRSCQ; listed as Homo sapiens) | 25 |

test system: E. coli BL21; test: MIC against Gram-negative bacteria: E. coli BL21; format: cell-based; details: E. coli BL21; 10 h cultivation at 37° C.
How it was run: as §1

| Substance | MIC [µg/mL] |
| --- | --- |
| PRT988 (DVDECQLQPNACHNGGTCFNTLGGHSCVCVNGWTGESCS; listed as Homo sapiens) | 50 |
| PRT991 (RGLLCGSFPEPCANGGTCLSLSLGQGTCQCAPGFLGETCQ; listed as Homo sapiens) | 25 |

same assay, conditions: E. coli BL21; 10 h cultivation at 37° C.; 5×10^5 CFU/mL

| Substance | MIC (μg/mL) E. coli BL21 [µg/mL] |
| --- | --- |
| PRT807 (YGDGCQLPCTCQNGADCHSITGGCTCAPGFMGEVCA; listed as Homo sapiens) | 50 |
| PRT768 (AIDYCSFGNHSCQHECVSTPGGPRCHCREGHDLQPDGRSCQ; listed as Homo sapiens) | 50 |

test system: E. coli DH5α; test: Antibacterial activity: MIC and growth curve against E. coli DH5α in 96-well plate; format: cell-based; details: minimal inhibitory concentration against E. coli DH5α; 96-well plate, 5×10^5 CFU/mL, 37° C., judged after 8 h
How it was run: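 Log-phase bacteria (OD600 ~0.5) resuspended in LB at 5×10^5 CFU/mL, exposed to recombinant protein at 50, 25, 12.5 μg/mL final in triplicate, 37 °C shaking at 175 rpm. OD600 read every 30 min; MIC is lowest concentration showing no growth.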

| Substance | MIC [µg/mL] |
| --- | --- |
| PRT807 (YGDGCQLPCTCQNGADCHSITGGCTCAPGFMGEVCA; listed as Homo sapiens) | 25 |
| PRT768 (AIDYCSFGNHSCQHECVSTPGGPRCHCREGHDLQPDGRSCQ; listed as Homo sapiens) | 12.5 |
| PRT988 (DVDECQLQPNACHNGGTCFNTLGGHSCVCVNGWTGESCS; listed as Homo sapiens) | 12.5 |
| PRT991 (RGLLCGSFPEPCANGGTCLSLSLGQGTCQCAPGFLGETCQ; listed as Homo sapiens) | 50 |

test system: Citrobacter diversus; test: MIC against Gram-negative bacteria: Citrobacter diversus; format: cell-based; details: C. diversus; 10 h cultivation at 37° C.
How it was run: as §1

| Substance | MIC [µg/mL] |
| --- | --- |
| PRT988 (DVDECQLQPNACHNGGTCFNTLGGHSCVCVNGWTGESCS; listed as Homo sapiens) | 12.5 |
| PRT991 (RGLLCGSFPEPCANGGTCLSLSLGQGTCQCAPGFLGETCQ; listed as Homo sapiens) | 50 |

same assay, conditions: C. diversus; 10 h cultivation at 37° C.; 5×10^5 CFU/mL

| Substance | MIC (μg/mL) C. diversus [µg/mL] |
| --- | --- |
| PRT807 (YGDGCQLPCTCQNGADCHSITGGCTCAPGFMGEVCA; listed as Homo sapiens) | 25 |
| PRT768 (AIDYCSFGNHSCQHECVSTPGGPRCHCREGHDLQPDGRSCQ; listed as Homo sapiens) | 50 |

test system: Pseudomonas aeruginosa; test: MIC against Gram-negative bacteria: Pseudomonas aeruginosa; format: cell-based; details: P. aeruginosa; 10 h cultivation at 37° C.
How it was run: as §1

| Substance | MIC [µg/mL] |
| --- | --- |
| PRT988 (DVDECQLQPNACHNGGTCFNTLGGHSCVCVNGWTGESCS; listed as Homo sapiens) | 12.5 |
| PRT991 (RGLLCGSFPEPCANGGTCLSLSLGQGTCQCAPGFLGETCQ; listed as Homo sapiens) | 12.5 |

same assay, conditions: P. aeruginosa; 10 h cultivation at 37° C.; 5×10^5 CFU/mL

| Substance | MIC (μg/mL) P. aeruginosa [µg/mL] |
| --- | --- |
| PRT807 (YGDGCQLPCTCQNGADCHSITGGCTCAPGFMGEVCA; listed as Homo sapiens) | 25 |
| PRT768 (AIDYCSFGNHSCQHECVSTPGGPRCHCREGHDLQPDGRSCQ; listed as Homo sapiens) | 25 |

test system: Klebsiella pneumonia; test: MIC against Gram-negative bacteria: Klebsiella pneumonia; format: cell-based; details: K. pneumonia; 10 h cultivation at 37° C.
How it was run: as §1

| Substance | MIC [µg/mL] |
| --- | --- |
| PRT988 (DVDECQLQPNACHNGGTCFNTLGGHSCVCVNGWTGESCS; listed as Homo sapiens) | 50 |
| PRT991 (RGLLCGSFPEPCANGGTCLSLSLGQGTCQCAPGFLGETCQ; listed as Homo sapiens) | 25 |

same assay, conditions: K. pneumonia; 10 h cultivation at 37° C.; 5×10^5 CFU/mL

| Substance | MIC (μg/mL) K. pneumonia [µg/mL] |
| --- | --- |
| PRT807 (YGDGCQLPCTCQNGADCHSITGGCTCAPGFMGEVCA; listed as Homo sapiens) | 12.5 |
| PRT768 (AIDYCSFGNHSCQHECVSTPGGPRCHCREGHDLQPDGRSCQ; listed as Homo sapiens) | 12.5 |

test system: Moraxella catarrhalis; test: MIC against Gram-negative bacteria: Moraxella catarrhalis; format: cell-based; details: M. catarrhalis; 10 h cultivation at 37° C.
How it was run: as §1

| Substance | MIC [µg/mL] |
| --- | --- |
| PRT988 (DVDECQLQPNACHNGGTCFNTLGGHSCVCVNGWTGESCS; listed as Homo sapiens) | 50 |
| PRT991 (RGLLCGSFPEPCANGGTCLSLSLGQGTCQCAPGFLGETCQ; listed as Homo sapiens) | 12.5 |

same assay, conditions: M. catarrhalis; 10 h cultivation at 37° C.; 5×10^5 CFU/mL

| Substance | MIC (μg/mL) M. catarrhalis [µg/mL] |
| --- | --- |
| PRT807 (YGDGCQLPCTCQNGADCHSITGGCTCAPGFMGEVCA; listed as Homo sapiens) | 50 |
| PRT768 (AIDYCSFGNHSCQHECVSTPGGPRCHCREGHDLQPDGRSCQ; listed as Homo sapiens) | 25 |

test system: Enterobacter cloacae; test: MIC against Gram-negative bacteria: Enterobacter cloacae; format: cell-based; details: E. cloacae; 10 h cultivation at 37° C.
How it was run: as §1

| Substance | MIC [µg/mL] |
| --- | --- |
| PRT988 (DVDECQLQPNACHNGGTCFNTLGGHSCVCVNGWTGESCS; listed as Homo sapiens) | 12.5 |
| PRT991 (RGLLCGSFPEPCANGGTCLSLSLGQGTCQCAPGFLGETCQ; listed as Homo sapiens) | 50 |

same assay, conditions: E. cloacae; 10 h cultivation at 37° C.; 5×10^5 CFU/mL

| Substance | MIC (μg/mL) E. cloacae [µg/mL] |
| --- | --- |
| PRT807 (YGDGCQLPCTCQNGADCHSITGGCTCAPGFMGEVCA; listed as Homo sapiens) | 50 |
| PRT768 (AIDYCSFGNHSCQHECVSTPGGPRCHCREGHDLQPDGRSCQ; listed as Homo sapiens) | 50 |

test system: Proteus mirabilis; test: MIC against Gram-negative bacteria: Proteus mirabilis; format: cell-based; details: P. mirabilis; 10 h cultivation at 37° C.
How it was run: as §1

| Substance | MIC [µg/mL] |
| --- | --- |
| PRT988 (DVDECQLQPNACHNGGTCFNTLGGHSCVCVNGWTGESCS; listed as Homo sapiens) | 12.5 |
| PRT991 (RGLLCGSFPEPCANGGTCLSLSLGQGTCQCAPGFLGETCQ; listed as Homo sapiens) | 25 |

same assay, conditions: P. mirabilis; 10 h cultivation at 37° C.; 5×10^5 CFU/mL

| Substance | MIC (μg/mL) P. mirabilis [µg/mL] |
| --- | --- |
| PRT807 (YGDGCQLPCTCQNGADCHSITGGCTCAPGFMGEVCA; listed as Homo sapiens) | 12.5 |
| PRT768 (AIDYCSFGNHSCQHECVSTPGGPRCHCREGHDLQPDGRSCQ; listed as Homo sapiens) | 12.5 |

test system: Aeromonas hydrophila; test: MIC against Gram-negative bacteria: Aeromonas hydrophila; format: cell-based; details: A. hydrophila; 10 h cultivation at 37° C.
How it was run: as §1

| Substance | MIC [µg/mL] |
| --- | --- |
| PRT988 (DVDECQLQPNACHNGGTCFNTLGGHSCVCVNGWTGESCS; listed as Homo sapiens) | 50 |
| PRT991 (RGLLCGSFPEPCANGGTCLSLSLGQGTCQCAPGFLGETCQ; listed as Homo sapiens) | 12.5 |

same assay, conditions: A. hydrophila; 10 h cultivation at 37° C.; 5×10^5 CFU/mL

| Substance | MIC (μg/mL) A. hydrophila [µg/mL] |
| --- | --- |
| PRT807 (YGDGCQLPCTCQNGADCHSITGGCTCAPGFMGEVCA; listed as Homo sapiens) | 12.5 |
| PRT768 (AIDYCSFGNHSCQHECVSTPGGPRCHCREGHDLQPDGRSCQ; listed as Homo sapiens) | 12.5 |

test system: Serratia marcescens; test: MIC against Gram-negative bacteria: Serratia marcescens; format: cell-based; details: S. marcescens; 10 h cultivation at 37° C.
How it was run: as §1

| Substance | MIC [µg/mL] |
| --- | --- |
| PRT988 (DVDECQLQPNACHNGGTCFNTLGGHSCVCVNGWTGESCS; listed as Homo sapiens) | 12.5 |
| PRT991 (RGLLCGSFPEPCANGGTCLSLSLGQGTCQCAPGFLGETCQ; listed as Homo sapiens) | 25 |

same assay, conditions: S. marcescens; 10 h cultivation at 37° C.; 5×10^5 CFU/mL

| Substance | MIC (μg/mL) S. marcescens [µg/mL] |
| --- | --- |
| PRT807 (YGDGCQLPCTCQNGADCHSITGGCTCAPGFMGEVCA; listed as Homo sapiens) | 12.5 |
| PRT768 (AIDYCSFGNHSCQHECVSTPGGPRCHCREGHDLQPDGRSCQ; listed as Homo sapiens) | 12.5 |
